According to US10933051B2, “Carbapenem compounds and compositions for the treatment of bacterial infections” (FOB Synthesis, Inc., priority 2017, dated 2021):

Assays:
Assay in all cases: Antimicrobial Susceptibility Test (CLSI), Test Example 3
Type in all cases: cell-based
Design in all cases: unit not given here
A. baumannii FSAb-029 = conditions: Table 6; strain produces OXA-2, IMP-1
Method: (§1) Antimicrobial Susceptibility Test was performed by the CLSI (Clinical and Laboratory Standards Institute) methods. The agar dilution method for determining antimicrobial susceptibility was carried out using Mueller Hinton-II agar and the amount of inoculation was 10^4CFU/spot. Broth dilution tests were performed using the Mueller Hinton-II broth. All assays were run with the indicated control strains, available from the ATCC (American Type Culture Collection, Rockville, Md.).

A. baumannii FSAb-039 = conditions: Table 6; strain produces OXA-51
Method: as §1

A. baumannii FSAb-056 = conditions: Table 6; strain produces OXA-23, 51
Method: as §1

A. baumannii FSAb-141 = conditions: Table 6; strain produces PER-1, OXA-23, 51, 66
Method: as §1

E. coli FSEco-054 = conditions: Table 6; strain produces ESBL
Method: as §1

K. pneumoniae BAA-1904 = conditions: Table 6; strain produces KPC-3
Method: as §1

P. aeruginosa FSPa-102 = conditions: Table 6; strain produces IMP-1
Method: as §1

P. aeruginosa FSPa-141 = conditions: Table 6; strain produces VIM-2
Method: as §1

Compound	antimicrobial susceptibility, Ab FSAb-029 (A. baumannii FSAb-029)	antimicrobial susceptibility, Ab FSAb-039 (A. baumannii FSAb-039)	antimicrobial susceptibility, Ab FSAb-056 (A. baumannii FSAb-056)	antimicrobial susceptibility, Ab FSAb-141 (A. baumannii FSAb-141)	antimicrobial susceptibility, Ec FSEco-054 (E. coli FSEco-054)	antimicrobial susceptibility, Kp BAA-1904 (K. pneumoniae BAA-1904)	antimicrobial susceptibility, Pa FSPa-102 (P. aeruginosa FSPa-102)	antimicrobial susceptibility, Pa FSPa-141 (P. aeruginosa FSPa-141)
C[C@@H](O)[C@H]1C(=O)N2C(C(=O)O)=C(CN(CCCNC(=O)c3ccc(O)c(O)c3Cl)CCCNC(=O)c3ccc(O)c(O)c3Cl)[C@H](C)[C@H]12 [Compound 107]	0.25	1	2	0.5	0.5	>32	1	1
C[C@@H](O)[C@H]1C(=O)N2C(C(=O)O)=C(CN(CCCNC(=O)c3cccc(O)c3O)CCNC(=O)c3cccc(O)c3O)[C@H](C)[C@H]12 [Compound 112]	4	8	32	4	8	>32	16	>32
C[C@@H](O)[C@H]1C(=O)N2C(C(=O)O)=C(CN(CCCCNC(=O)c3ccc(O)c(O)c3Cl)CCCNC(=O)c3ccc(O)c(O)c3Cl)[C@H](C)[C@H]12 [Compound 108]	1	2	4	1	1	>32	2	2
C[C@@H](O)[C@H]1C(=O)N2C(C(=O)O)=C(CN(C)CC(=O)N(CCCNC(=O)c3ccc(O)c(O)c3F)CCCNC(=O)c3ccc(O)c(O)c3F)[C@H](C)[C@H]12 [Compound 115]	2	4	8	2	2	>32	2	4
C[C@@H](O)[C@H]1C(=O)N2C(C(=O)[O-])=C(C[N+](C)(CCCNC(=O)c3ccc(O)c(O)c3F)CCCNC(=O)c3ccc(O)c(O)c3F)[C@H](C)[C@H]12 [Compound 114]	1	32	8	2	2	>32	4	4
C[C@@H](O)[C@H]1C(=O)N2C(C(=O)O)=C(CN(CCCNC(=O)c3ccc(O)c(O)c3)CCNC(=O)c3ccc(O)c(O)c3)[C@H](C)[C@H]12 [Compound 109]	1	2	4	2	2	>32	4	4
COc1ccc(C(=O)NCCCN(CCCNC(=O)c2ccc(OC)c(OC)c2F)CC2=C(C(=O)O)N3C(=O)[C@H]([C@@H](C)O)[C@H]3[C@H]2C)c(F)c1OC [Compound 120]	>32	>32	>32	>32	>32	>32	>32	>32
C[C@@H](O)[C@H]1C(=O)N2C(C(=O)O)=C(CN(CCCCNC(=O)c3ccc(O)c(O)c3)CCCNC(=O)c3ccc(O)c(O)c3)[C@H](C)[C@H]12 [Compound 111]	2	4	8	2	4	>32	4	16
C[C@@H](O)[C@H]1C(=O)N2C(C(=O)[O-])=C(CN(C)CC[N+](C)(CCCNC(=O)c3ccc(O)c(O)c3F)CCCNC(=O)c3ccc(O)c(O)c3F)[C@H](C)[C@H]12 [Compound 118]	2	8	8	4	2	>32	4	8
C[C@@H](O)[C@H]1C(=O)N2C(C(=O)O)=C(CN(CCNC(=O)c3ccc(O)c(O)c3Cl)CCNC(=O)c3ccc(O)c(O)c3Cl)[C@H](C)[C@H]12 [Compound 105]	0.5	2	2	0.5	1	16	1	0.5
C[C@@H](O)[C@H]1C(=O)N2C(C(=O)O)=C(CN(CCCNC(=O)c3ccc(O)c(O)c3)CCCNC(=O)c3ccc(O)c(O)c3)[C@H](C)[C@H]12 [Compound 110]	2	8	8	4	4	>32	8	16
C[C@@H](O)[C@H]1C(=O)N2C(C(=O)O)=C(CN(CCCNC(=O)c3ccc(O)c(O)c3F)CCCNC(=O)c3ccc(O)c(O)c3F)[C@H](C)[C@H]12 [Compound 103]	0.25	1	4	1	1	>32	2	8
C[C@@H](O)[C@H]1C(=O)N2C(C(=O)O)=C(CN(C)CC(=O)N(CCCNC(=O)c3ccc(O)c(O)c3F)CCCNC(=O)c3ccc(O)c(O)c3F)[C@H](C)[C@H]12 [Compound 117]	2	4	4	2	1	>32	2	8
C[C@@H](O)[C@H]1C(=O)N2C(C(=O)O)=C(CN(CCCNC(=O)c3ccc(O)c(O)c3Cl)CCNC(=O)c3ccc(O)c(O)c3Cl)[C@H](C)[C@H]12 [Compound 106]	0.25	1	2	0.5	1	>32	1	1
C[C@@H](O)[C@H]1C(=O)N2C(C(=O)O)=C(CN(CCCNC(=O)c3ccc(O)c(O)c3F)CCNC(=O)c3ccc(O)c(O)c3F)[C@H](C)[C@H]12 [Compound 102]	0.25	1	4	0.5	1	>32	1	2
C[C@@H](O)[C@H]1C(=O)N2C(C(=O)O)=C(CN(CCNC(=O)c3ccc(O)c(O)c3F)CCNC(=O)c3ccc(O)c(O)c3F)[C@H](C)[C@H]12 [Compound 101]	0.25	2	4	0.5	2	>32	1	1
C[C@@H](O)[C@H]1C(=O)N2C(C(=O)O)=C(CN(CCCCNC(=O)c3ccc(O)c(O)c3F)CCCNC(=O)c3ccc(O)c(O)c3F)[C@H](C)[C@H]12 [Compound 104]	0.5	2	4	1	1	>32	2	4
